In publication PMC6274388, “Deoxyelephantopin from Elephantopus scaber Inhibits HCT116 Human Colorectal Carcinoma Cell Growth through Apoptosis and Cell Cycle Arrest” (Molecules, 2016):

How the values were obtained:
[1] = tested on: HCT116 human colorectal carcinoma cells; assay: MTT cytotoxicity assay on HCT116 cells; assay type: cell-based; settings: for IC50: Homo sapiens, HCT-116, HCT116, MTT; for cell viability: HCT116, 72 h, 0.39–25.0 µg/mL
Description: (§1) HCT116 human colorectal cancer cells and CCD841-CoN normal cells were obtained from the American Type Culture Collection (ATCC, Manassas, VA, USA). HCT116 cells and CCD841-CoN normal cells were cultured in RPMI-1640 and EMEM media respectively, with 10% v/v heat-inactivated fetal bovine serum (FBS), 100 µg/mL penicillin streptomycin and 50 µg/mL amphotericin B at 37 °C in 5% CO2 incubator.
(§2) To investigate the cytotoxic effect of each fraction and compounds, the MTT assay was utilized. Cells were seeded and exposed to different concentrations (0.38–25 µg/mL) of each fraction which was dissolved in DMSO. 5-fluorouracil (5-FU) was used as positive control. Untreated cells (negative control) were treated with vehicle dimethyl sulfoxide (DMSO). The final concentration of DMSO was below 0.5% v/v in all experiments. MTT (5 mg/mL) was then added to each well after treatment and incubated for another 4 h at 37 °C. Subsequently, the medium was discarded and replaced by 150 µL of DMSO to dissolve the formazan crystals followed by quantified at 570 nm and 650 nm as a background using a microplate reader (Asys UVM340, Biochrom, Eugendorf, Austria). The percentage of cell viability was calculated according to the following equation: Cell viability percentage (%) = (Absorbance of treated cells/absorbance of untreated cells) × 100%.

[2] = tested on: CCD841CoN normal colon cells; assay: MTT cytotoxicity assay on CCD841CoN normal colon cells; assay type: cell-based, human; settings: for IC50: Homo sapiens, CCD-841CoN, MTT, 72 h
Description: as §1, §2

[3] = tested on: HCT116 cells; assay: Externalization of phosphatidylserine, Annexin V-FITC/PI staining, flow cytometry; assay type: cell-based, human; settings: 24 h
Description: 1 × 10^6 HCT116 cells were plated in 60 mm^2 culture dishes and exposed to different concentrations of DET (0.75, 1.5 and 3.0 µg/mL) for 24 h. Subsequently, cells were washed with PBS, resuspended in 1× Annexin V binding buffer and stained with Annexin V-fluorescein-isothiocyanate (FITC) (BD) and propidium iodide (PI) in the dark at room temperature for 15 min. 1× binding buffer was then added into each tube. The apoptotic and necrotic cell populations were then examined by flow cytometry. The fluorescence intensity was detected in FL1-A (x-axis) and FL2-A channel (y-axis).

[4] = tested on: HCT116 cells; assay: Cell cycle distribution by PI flow cytometry; assay type: cell-based, human; settings: 24 h
Description: 1 × 10^6 HCT116 cells were plated in 60 mm^2 culture dishes and exposed to different concentrations of DET (0.75, 1.5 and 3.0 µg/mL) for 24 h. The cells were harvested and centrifuged at 300× g at room temperature. The cells were then resuspended in 1 mL of buffer solution followed by centrifugation and washing with buffer solution. Subsequently, 250 µL of Solution A (trypsin buffer) was added and incubated for 10 min, followed by addition of 100 µL of Solution B (trypsin inhibitor and RNase buffer) and incubated at room temperature for 10 min. 200 µL of cold PI solution was added, gently mixed and incubated on ice for 10 min in the dark. Finally, samples were assessed by using flow cytometry (BD, San Jose, CA, USA).

[5] = tested on: HCT116 cells; assay: Nuclear morphological changes, Hoechst 33342/PI staining; assay type: cell-based, human; settings: HCT116, 0.75, 1.5 and 3.0 µg/mL, 24 h, dose-dependent
Description: 1 × 10^6 HCT116 cells were plated in 60 mm^2 culture dishes and treated with increasing concentrations of DET (0.75, 1.5 and 3.0 µg/mL) while negative control was treated with the vehicle DMSO for 24 h. Then, the cells were collected, washed with PBS and proceed to staining with Hoechst 33342 (40 µg/mL) and propidium iodide solution (10 µg/mL) at room temperature in the dark for 30 min. The cells were then examined by inverted fluorescence microscopy (DM1600B, Leica, Wetzlar, Germany).

[6] = tested on: cleaved caspase-3; assay: Western blot, cleaved caspase-3 in HCT116 cells; assay type: cell-based, human; settings: HCT116, 0.75, 1.5 and 3.0 µg/mL, 24 h
Description: (§3) 1 × 10^6 HCT116 cells were plated in 60 mm^2 culture dishes and exposed to varying concentrations of DET (0.75, 1.5 and 3.0 µg/mL) for 24 h. The cells were collected, resuspended in cold RIPA buffer containing protease and phosphatase inhibitors and placed on ice for 5 min followed by centrifugation at 14,000× g for 15 min at 4 °C. 25 μg of total proteins was separated on the 12% SDS-PAGE gels and transferred onto nitrocellulose membranes, followed by the blocking using skim milk/bovine serum albumin for 1 h. Membranes were incubated with primary antibodies (cleaved PARP, cleaved caspase-3, p-p53, p21, CDK2, CDK4, CDK 6, cyclin D1, cyclin A2, cyclin B, cyclin E and GAPDH, Cell Signaling) at 4 °C overnight. Subsequently, the membranes were washed with TBST (0.05% Tween 20 in TBS) and incubated with corresponding anti-mouse/rabbit immunoglobulin G-horseradish peroxidase-conjugated secondary antibody (Cell Signaling, Danvers, MA, USA) at room temperature for 1 h. Then, the membranes were washed with TBST. The bands was detected by using enhanced chemiluminescence (ECL) detection kit (BioRad, Hercules, CA, USA) and visualized using gel documentation system. Protein bands were analyzed quantitatively and qualitatively with Vilber Lourmart.

[7] = tested on: cleaved PARP; assay: Western blot, cleaved PARP in HCT116 cells; assay type: cell-based, human; settings: HCT116, 0.75, 1.5 and 3.0 µg/mL, 24 h
Description: as §3

[8] = tested on: CDK4; assay: Western blot, CDK4 in HCT116 cells; assay type: cell-based, human; settings: HCT116, 0.75, 1.5 and 3.0 µg/mL, 24 h
Description: as §3

[9] = tested on: CDK2; assay: Western blot, CDK2 in HCT116 cells; assay type: cell-based, human; settings: HCT116, 0.75, 1.5 and 3.0 µg/mL, 24 h
Description: as §3

[10] = tested on: cyclin A2; assay: Western blot, cyclin A2 in HCT116 cells; assay type: cell-based, human; settings: HCT116, 0.75, 1.5 and 3.0 µg/mL, 24 h
Description: as §3

[11] = tested on: cyclin B1; assay: Western blot, cyclin B1 in HCT116 cells; assay type: cell-based, human; settings: HCT116, 0.75, 1.5 and 3.0 µg/mL, 24 h
Description: as §3

[12] = tested on: cyclin E2; assay: Western blot, cyclin E2 in HCT116 cells; assay type: cell-based, human; settings: HCT116, 0.75, 1.5 and 3.0 µg/mL, 24 h
Description: as §3

[13] = tested on: cyclin D1; assay: Western blot, cyclin D1 in HCT116 cells; assay type: cell-based, human; settings: HCT116, 0.75, 1.5 and 3.0 µg/mL, 24 h
Description: as §3

[14] = tested on: CDK6; assay: Western blot, CDK6 in HCT116 cells; assay type: cell-based, human; settings: HCT116, 0.75, 1.5 and 3.0 µg/mL, 24 h
Description: as §3

[15] = tested on: p21; assay: Western blot, p21 in HCT116 cells; assay type: cell-based, human; settings: HCT116, 0.75, 1.5 and 3.0 µg/mL, 24 h
Description: as §3

[16] = tested on: phospho-p53; assay: Western blot, phospho-p53 in HCT116 cells; assay type: cell-based, human; settings: HCT116, 0.75, 1.5 and 3.0 µg/mL, 24 h
Description: as §3

[17] = 72 h, value in brackets after the µg/mL value
[18] = CCD841-CoN normal cell line, mean ± S.E. (n = 9)

O=c1[nH]cc(F)c(=O)[nH]1 [5-Fluorouracil, 5-fluorouracil, reference compound] gave an IC50 ([1]; 72 h, mean ± S.E. (n = 9)) of 0.73 ± 0.02 µg/mL, an IC50 [1, 17] of 5 µM and an IC50 [2, 18] greater than 25 µg/mL.

C=C(C)C(=O)O[C@H]1CC2=C[C@@H](C/C(C)=C/[C@H]3OC(=O)C(=C)[C@H]13)OC2=O [Deoxyelephantopin, deoxyelephantopin] was tested, and the cell viability [1] was “dose-dependent reduction of cell viability”, the IC50 ([1]; 24 h) was 2.36 ± 0.02 µg/mL and the IC50 ([1]; 48 h) was 0.9 ± 0.02 µg/mL. For the same molecule, the IC50 ([1]; 72 h, mean ± S.E. (n = 9)) was 0.73 ± 0.01 µg/mL, the IC50 [1, 17] was 2.12 µM and the IC50 [2, 18] was 21.7 ± 0.92 µg/mL. The IC50 ([2]; CCD841CoN normal cells, value in brackets after the µg/mL value) was 60 µM, the “difference in cytotoxicity, CCD841CoN normal cells compared to HCT116 cells” value ([2]; IC50 at 72 h) was 30 fold and the “accumulation of apoptotic cells compared to untreated control” value ([3]; HCT116, 0.75 μg/mL) was “significant accumulation of apoptotic cells”. For the same molecule, the “proportion of apoptotic cells (early and late apoptotic phases)” value ([3]; HCT116, 3.0 µg/mL) was 63.63% ± 2.03%, the necrotic cell death ([3]; HCT116, 0.75–3.0 µg/mL) was “did not significantly induce necrotic cell death” and the viability at 0.75 µg/mL ([3]; Homo sapiens, HCT-116, HCT116, 0.75 μg/mL, representative plot, read-out: Q1-LL cells (annexin−/PI−, viable)) was 74.8%. For the same molecule, the viability at 1.5 µg/mL ([3]; Homo sapiens, HCT-116, HCT116, 1.50 μg/mL, representative plot, read-out: Q1-LL cells (annexin−/PI−, viable)) was 59.8%, the viability at 3 µg/mL ([3]; Homo sapiens, HCT-116, HCT116, 3.00 μg/mL, representative plot, read-out: Q1-LL cells (annexin−/PI−, viable)) was 34.1% and the “cells in the S phase” value ([4]; HCT116, 1.5 µg/mL) was 28.17% ± 0.23%. For the same molecule, the “cells in the S phase” value ([4]; HCT116, 3.0 µg/mL) was 29.25% ± 0.21%, the cell cycle progression ([4]; HCT116, 0.75, 1.5 and 3.0 µg/mL) was “cell cycle arrest at S phase” and the “apoptotic morphological changes (chromatin condensation, cell shrinkage, DNA fragmentation)” value [5] was “apoptosis-inducing effect”. The “cleaved caspase-3 protein expression” value [6] was “dose-dependent upregulation”, the “cleaved PARP protein expression” value [7] was “dose-dependent upregulation” and the CDK4 protein expression [8] was “significant downregulation”. The CDK2 protein expression [9] was “significant downregulation”, the “cyclin A2 protein expression” value [10] was “significant downregulation” and the “cyclin B1 protein expression” value [11] was “significant downregulation”. For the same molecule, the “cyclin E2 protein expression” value [12] was “significant downregulation”, the “cyclin D1 protein expression” value [13] was “significant downregulation” and the CDK6 protein expression [14] was “remain constant”. For the same molecule, the p21 expression level [15] was “upregulated” and the phospho-p53 expression level [16] was “upregulated”.

In the case of C=C(C)C(=O)O[C@H]1CC2=C[C@H](C/C(C)=C/[C@H]3OC(=O)C(=C)[C@H]13)OC2=O [Isodeoxyelephantopin, isodeoxyelephantopin], the cell viability [1] is reported as “dose-dependent reduction of cell viability”, the IC50 ([1]; 72 h, mean ± S.E. (n = 9)) is reported as 0.88 ± 0.02 µg/mL and the IC50 [1, 17] is reported as 2.56 µM.
